Measurements: article PMC10820264, “Combining Experimental and Computational Methods to Produce Conjugates of Anticholinesterase and Antioxidant Pharmacophores with Linker Chemistries Affecting Biological Activities Related to Treatment of Alzheimer’s Disease” (Molecules, 2024)
Like-named read-outs stand apart in the source and are kept apart here. Marks after values point to notes of the source that are not given here.

How the values were obtained:
[1] = ABTS radical cation scavenging assay
Human erythrocyte AChE = Human erythrocyte AChE (Homo sapiens, UniProt P22303); parameters: method as in PMID 33322783; conditions: cited from earlier work
equine serum BChE = equine serum BChE (Equus caballus, UniProt P81908); parameters: method as in PMID 33322783; conditions: cited from earlier work
Porcine liver CES = tested on: Porcine liver CES; parameters: method as in PMID 33322783; conditions: cited from earlier work
[2] = target: peripheral anionic site of Electrophorus electricus AChE (EeAChE) (Electrophorus electricus, UniProt O42275); parameters: method as in PMID 33322783; conditions: compound 20 μM; cited from earlier work
[3] = parameters: method as in PMID 33322783; conditions: Trolox equivalents; cited from earlier work
[4] = parameters: method as in PMID 33322783; conditions: Trolox equivalents; cited from earlier work; remark: listed apart in the source
AChE = AChE (Homo sapiens, UniProt P22303); parameters: method as in PMID 33322783; conditions: cited from earlier work
eqBChE = eqBChE (Equus caballus, UniProt P81908); parameters: method as in PMID 33322783; conditions: cited from earlier work
[5] = Ferric-reducing antioxidant power (FRAP) assay; conditions: Trolox equivalents

Human erythrocyte AChE, sequence (P22303 other isoform, or with tags, fused parts or gaps): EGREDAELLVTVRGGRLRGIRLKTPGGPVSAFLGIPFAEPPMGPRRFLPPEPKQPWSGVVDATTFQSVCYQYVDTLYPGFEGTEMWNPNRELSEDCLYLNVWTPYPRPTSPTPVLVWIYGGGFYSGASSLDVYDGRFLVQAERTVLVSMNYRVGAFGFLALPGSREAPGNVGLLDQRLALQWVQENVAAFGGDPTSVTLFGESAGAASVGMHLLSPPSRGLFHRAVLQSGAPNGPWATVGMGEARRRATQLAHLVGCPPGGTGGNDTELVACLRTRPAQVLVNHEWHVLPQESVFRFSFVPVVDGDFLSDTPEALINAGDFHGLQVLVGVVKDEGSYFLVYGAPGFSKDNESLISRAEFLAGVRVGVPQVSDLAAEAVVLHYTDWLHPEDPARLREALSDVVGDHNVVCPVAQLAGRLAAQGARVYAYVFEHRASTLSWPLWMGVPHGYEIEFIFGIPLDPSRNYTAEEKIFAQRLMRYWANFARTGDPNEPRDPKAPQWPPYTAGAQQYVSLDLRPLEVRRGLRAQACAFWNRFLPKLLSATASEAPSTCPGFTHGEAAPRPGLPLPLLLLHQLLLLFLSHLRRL
peripheral anionic site of Electrophorus electricus AChE (EeAChE), sequence (O42275 24-633): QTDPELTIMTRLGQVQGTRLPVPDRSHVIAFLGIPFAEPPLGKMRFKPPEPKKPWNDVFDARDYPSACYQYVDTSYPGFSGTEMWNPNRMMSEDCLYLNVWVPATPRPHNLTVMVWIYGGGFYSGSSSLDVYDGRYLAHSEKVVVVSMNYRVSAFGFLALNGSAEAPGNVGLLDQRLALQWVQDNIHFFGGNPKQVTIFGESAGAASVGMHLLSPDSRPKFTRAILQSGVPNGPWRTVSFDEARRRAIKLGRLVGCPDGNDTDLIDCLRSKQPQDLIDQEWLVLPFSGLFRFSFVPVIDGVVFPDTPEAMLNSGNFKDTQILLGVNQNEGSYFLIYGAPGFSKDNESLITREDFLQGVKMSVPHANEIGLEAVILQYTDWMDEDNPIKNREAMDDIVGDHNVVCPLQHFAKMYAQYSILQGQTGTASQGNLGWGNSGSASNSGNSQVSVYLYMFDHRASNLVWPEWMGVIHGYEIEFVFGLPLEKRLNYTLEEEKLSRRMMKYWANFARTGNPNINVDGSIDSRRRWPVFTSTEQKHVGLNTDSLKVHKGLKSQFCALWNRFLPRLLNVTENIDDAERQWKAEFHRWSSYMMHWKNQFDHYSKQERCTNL
equine serum BChE, sequence (P81908 whole entry): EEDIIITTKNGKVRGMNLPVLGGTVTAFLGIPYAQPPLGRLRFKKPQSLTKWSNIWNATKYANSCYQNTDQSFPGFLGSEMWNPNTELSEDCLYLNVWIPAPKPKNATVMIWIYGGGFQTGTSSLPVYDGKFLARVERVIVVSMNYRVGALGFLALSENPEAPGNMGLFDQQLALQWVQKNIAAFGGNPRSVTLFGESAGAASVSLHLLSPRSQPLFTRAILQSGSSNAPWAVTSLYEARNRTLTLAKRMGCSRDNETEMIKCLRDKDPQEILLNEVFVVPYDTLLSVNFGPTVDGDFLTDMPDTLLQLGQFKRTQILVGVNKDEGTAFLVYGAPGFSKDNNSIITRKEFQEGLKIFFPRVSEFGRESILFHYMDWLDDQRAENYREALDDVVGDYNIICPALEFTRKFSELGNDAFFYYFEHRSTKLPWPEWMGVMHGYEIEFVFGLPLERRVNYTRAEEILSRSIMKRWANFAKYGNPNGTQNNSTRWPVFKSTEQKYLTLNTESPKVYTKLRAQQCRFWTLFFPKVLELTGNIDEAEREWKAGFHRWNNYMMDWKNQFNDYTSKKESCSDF
AChE, sequence (P22303 other isoform, or with tags, fused parts or gaps): as the sequence (P22303 other isoform, or with tags, fused parts or gaps) above
eqBChE, sequence (P81908 whole entry): as the sequence (P81908 whole entry) above

Compound	IC50 [1] [µM]	IC50 (Human erythrocyte AChE) [µM]	IC50 (equine serum BChE) [µM]	CES % inhibition at 20 μM (Porcine liver CES)	Propidium Displacement [2]	ABTS•+-Scavenging Activity TEAC [3]	Ferric-Reducing Antioxidant Power TE [4]	AChE αKi (non-competitive inhibition constant) (AChE)	Ki (AChE; read-out: AChE Ki (competitive inhibition constant)) [µM]	eqBChE αKi (non-competitive inhibition constant) (eqBChE)	Ki (eqBChE; read-out: eqBChE Ki (competitive inhibition constant)) [µM]	Ferric-Reducing Antioxidant Power TE [5]
CC(C)(C)c1cc(/C=N/CCNc2c3c(nc4ccccc24)CCCC3)cc(C(C)(C)C)c1O [14a]	17.8 ± 1.5	5.98 ± 0.131	1.61 ± 0.04	28.6 ± 1.6% ^a,***	18.2 ± 1.6 ^a,*^,§ %	1.13 ± 0.05 ^a	0.58 ± 0.03 ^a,***					
CC(C)(C)c1cc(/C=N/CCNc2c3c(nc4ccccc24)CCCCC3)cc(C(C)(C)C)c1O [15a]	18.8 ± 0.8	4.03 ± 0.03	0.419 ± 0.04	30.1 ± 2.5% ^a,***	16.3 ± 1.3 ^a %	1.11 ± 0.04 ^a	0.52 ± 0.01 ^a,***	4300 ± 20 ^b,* nM	1.58 ± 0.1	437 ± 10 ^b,*** nM	0.164 ± 0.005	
CC(C)(C)c1cc(CNCCNc2c3c(nc4ccccc24)CCC3)cc(C(C)(C)C)c1O [16a]	14.6 ± 0.8			19.6 ± 1.3% ^a,***	16.4 ± 1.4 ^a %	1.39 ± 0.05 ^a,***						0.57 ± 0.02
CC(C)(C)c1cc(CNCCNc2c3c(nc4ccccc24)CCCCC3)cc(C(C)(C)C)c1O [18a]	15.3 ± 0.6			26.0 ± 3.9% ^a,*	13.6 ± 1.2 ^a %	1.35 ± 0.06 ^a,***						0.44 ± 0.06
CC(C)(C)c1cc(/C=N/CCNc2c3c(nc4ccccc24)CCC3)cc(C(C)(C)C)c1O [13a]	22.3 ± 1.5	4.86 ± 0.01	1.92 ± 0.11	26.1 ± 0.7% ^a,***	18.1 ± 1.6 ^a,*^,§ %	0.92 ± 0.03 ^a	0.51 ± 0.03 ^a,***					
